In BindingDB's records for doi:10.1111/cbdd.12443 (Northeastern University, 2015):
Counter-ions that a name gives are not always drawn.

Biological target: T1, Phosphodiesterase (Trypanosoma brucei, UniProt Q8WQX9)
T1 sequence (Q8WQX9 whole entry): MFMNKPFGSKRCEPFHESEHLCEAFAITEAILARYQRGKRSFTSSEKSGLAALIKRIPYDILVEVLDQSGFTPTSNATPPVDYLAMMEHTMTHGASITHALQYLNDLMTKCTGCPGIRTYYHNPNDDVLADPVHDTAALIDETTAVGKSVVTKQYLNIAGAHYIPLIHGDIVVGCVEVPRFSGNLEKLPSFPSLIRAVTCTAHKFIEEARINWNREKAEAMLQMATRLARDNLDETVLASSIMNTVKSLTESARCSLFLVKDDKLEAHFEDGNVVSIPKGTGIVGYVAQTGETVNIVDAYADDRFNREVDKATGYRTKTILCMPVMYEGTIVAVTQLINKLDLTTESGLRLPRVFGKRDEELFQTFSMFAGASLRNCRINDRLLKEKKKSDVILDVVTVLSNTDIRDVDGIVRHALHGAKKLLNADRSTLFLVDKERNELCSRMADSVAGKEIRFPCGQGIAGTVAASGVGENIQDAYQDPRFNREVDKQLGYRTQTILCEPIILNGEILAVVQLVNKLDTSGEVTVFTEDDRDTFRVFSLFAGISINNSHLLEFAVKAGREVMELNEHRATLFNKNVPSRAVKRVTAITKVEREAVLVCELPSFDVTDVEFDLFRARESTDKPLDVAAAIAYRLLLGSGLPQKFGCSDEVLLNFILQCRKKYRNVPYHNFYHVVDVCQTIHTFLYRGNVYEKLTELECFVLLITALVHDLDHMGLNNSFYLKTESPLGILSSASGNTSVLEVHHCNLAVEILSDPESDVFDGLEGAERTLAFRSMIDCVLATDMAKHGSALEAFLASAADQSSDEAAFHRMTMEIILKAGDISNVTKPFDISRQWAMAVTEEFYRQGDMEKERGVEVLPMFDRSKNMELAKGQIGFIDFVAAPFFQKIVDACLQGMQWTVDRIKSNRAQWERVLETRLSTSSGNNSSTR
Assay: TbrPDEB1 Enzyme Assay
Conditions: pH 7.4
Method: In short, recombinant TbrPDEB1 and TbrPDEB2 were assayed in 10 mM Tris pH 7.4, bovine serum albumin (0.2 mg/mL), 10 mM MgCl2, 25µM cAMP (Enzo Lifesciences) and an excess of 5 endonucleotidase (>1000U) at 37 °C. Excess amount of 5 endonucleotidase was determined by titration (Enzo Lifesciences). Reactions were terminated by the addition of BioMol green (Enzo Lifesciences) which was also used to detect changes in the level of phosphate. This was measured by absorbance at 620 nm using a Tecan Sunrise plate reader. […] Inhibitors were preincubated with the assay mixture for 5 min prior to the addition of substrate. Inhibition was determined by the change in the initial velocity relative to a vehicle only control for both compound screening and for the determination of IC50 values. Initial velocity was determined by linear regression and IC50 values were calculated

SMILES | IC50
COc1cccc(Nc2c(C(N)=O)cnc3c(C)cc(-c4cccc(-c5ncco5)c4)cc23)c1 [4-((3-Methoxyphenyl)amino)-8-methyl-6-(3-(oxazol-2-yl)phenyl)quinoline-3-carboxamide (17p)] | 5.9 µM
COc1cccc(Nc2c(C(N)=O)cnc3c(C)cc(-c4cccc(-c5nnn[nH]5)c4)cc23)c1 [6-(3-(1H-Tetrazol-5-yl)phenyl)-4-((3-methoxyphenyl)amino)-8-methylquinoline-3-carboxamide (17m)] | 6.7 µM
CCc1cc(-c2ccc3cnn(C)c3c2)cc2c(Nc3cccc(OC)c3)c(C(N)=O)cnc12 [8-Ethyl-4-((3-methoxyphenyl)amino)-6-(1-methyl-1H-indazol-6-yl)quinoline-3-carboxamide (19c)] | 3.7 µM
COc1cccc(Nc2c(C(N)=O)cnc3c(C)cc(S(=O)(=O)c4cccc(C(=O)N(C)C)c4)cc23)c1 [GSK-256066] | 24 µM
CNC(=O)c1cccc(S(=O)(=O)c2cc(C)c3ncc(C(N)=O)c(Nc4cccc(OC)c4)c3c2)c1 [4-(3-methoxyphenylamino)-8-methyl-6-(3-(methylcarbamoyl)phenylsulfonyl)quinoline-3-carboxamide (12b)] | 31 µM
CCOc1cccc(Nc2c(C(N)=O)cnc3c(C)cc(-c4ccc5cnn(C)c5c4)cc23)c1 [4-((3-Ethoxyphenyl)amino)-8-methyl-6-(1-methyl-1H-indazol-6-yl)quinoline-3-carboxamide (24c)] | 4.2 µM
COC(=O)c1cccc(Nc2cc(C)c3ncc(C(N)=O)c(Nc4cccc(OC)c4)c3c2)c1 [Methyl 3-(3-carbamoyl-4-(3-methoxyphenylamino)-8-methylquinolin-6-ylamino)benzoate (13)] | 16 µM
COc1cccc(Nc2c(C(N)=O)cnc3c(C)cc(-c4cccc(-c5nnc(C)s5)c4)cc23)c1 [4-((3-Methoxyphenyl)amino)-8-methyl-6-(3-(5-methyl-1,3,4-thiadiazol-2-yl)phenyl) quinoline-3-carboxamide, formic acid salt (17o)] | 6 µM
Cc1cc(-c2cccc(-c3ncco3)c2)cc2c(NC3CCCC3)c(C(N)=O)cnc12 [4-(Cyclopentylamino)-8-methyl-6-(3-(oxazol-2-yl)phenyl)quinoline-3-carboxamide (28)] | 5.9 µM
COc1ccc(Nc2c(C(N)=O)cnc3c(C)cc(-c4ccc5cnn(C)c5c4)cc23)cc1C [4-(4-Methoxy-3-methylphenylamino)-8-methyl-6-(1-methyl-1H-indazol-6-yl)quinoline-3-carboxamide, formic acid salt (24f)] | 3.7 µM
COc1cccc(Nc2c(C(N)=O)cnc3c(C)cc(-c4cccc(N)c4)cc23)c1 [6-(3-Aminophenyl)-4-((3-methoxyphenyl)amino)-8-methylquinoline-3-carboxamide (17f)] | 23 µM
COC(=O)c1cccc(-c2cc(C)c3ncc(C(N)=O)c(NCc4ccccc4)c3c2)c1 [Methyl 3-(4-(benzylamino)-3-carbamoyl-8-methylquinolin-6-yl)benzoate (22c)] | 28 µM
COC(=O)c1cccc(-c2cc(C)c3ncc(C(N)=O)c(Nc4cccnc4)c3c2)c1 [Methyl 3-(3-carbamoyl-8-methyl-4-(pyridin-3-ylamino)quinolin-6-yl)benzoate (22f)] | 26 µM
COC(=O)c1cccc(S(=O)(=O)c2cc(C)c3ncc(C(N)=O)c(Nc4cccc(OC)c4)c3c2)c1 [Methyl 3-(3-carbamoyl-4-(3-methoxyphenylamino)-8-methylquinolin-6-ylsulfonyl)benzoate (10a)] | 3.5 µM
COc1cccc(Nc2c(C(N)=O)cnc3c(C)cc(-c4cn[nH]c4)cc23)c1 [4-((3-Methoxyphenyl)amino)-8-methyl-6-(1H-pyrazol-4-yl)quinoline-3-carboxamide  (17j)] | 9 µM
COc1cccc(Nc2c(C(N)=O)cnc3c(C)cc(-c4cccc(N5CCOCC5)c4)cc23)c1 [4-((3-Methoxyphenyl)amino)-8-methyl-6-(3-morpholinophenyl)quinoline-3-carboxamide (17s)] | 12 µM
COc1cccc(Nc2c(C(N)=O)cnc3c(C)cc(S(=O)(=O)c4cccc(C(=O)O)c4)cc23)c1 [3-(3-carbamoyl-4-(3-methoxyphenylamino)-8-methylquinolin-6-ylsulfonyl)benzoic acid (11)] | 2.9 µM
Cc1cccc(Nc2c(C(N)=O)cnc3c(C)cc(-c4ccc5cnn(C)c5c4)cc23)c1 [8-Methyl-6-(1-methyl-1H-indazol-6-yl)-4-(m-tolylamino)quinoline-3-carboxamide (24e)] | 3.5 µM
COc1cccc(Nc2c(C(N)=O)cnc3ccc(-c4ccc5cnn(C)c5c4)cc23)c1 [4-((3-Methoxyphenyl)amino)-6-(1-methyl-1H-indazol-6-yl)quinoline-3-carboxamide (19b)] | 12 µM
COc1cccc(Nc2c(C(N)=O)cnc3c(C)cc(-c4ccc5[nH]ccc5c4)cc23)c1 [6-(1H-Indol-5-yl)-4-((3-methoxyphenyl)amino)-8-methylquinoline-3-carboxamide (17t)] | 5.9 µM
